Calls of active or inactive are those of the source. How the calls were made is not given here.
Molecular target: Metabotropic glutamate receptor 4 (Rattus norvegicus) (UniProt P31423)
Experiment: PubChem AID 2179
Conditions: HEK/GIRK rat mGluR4, thallium flux, glutamate CRC fold-shift

Metabotropic glutamate receptor 4 (Rattus norvegicus), sequence (P31423 whole entry, looked up): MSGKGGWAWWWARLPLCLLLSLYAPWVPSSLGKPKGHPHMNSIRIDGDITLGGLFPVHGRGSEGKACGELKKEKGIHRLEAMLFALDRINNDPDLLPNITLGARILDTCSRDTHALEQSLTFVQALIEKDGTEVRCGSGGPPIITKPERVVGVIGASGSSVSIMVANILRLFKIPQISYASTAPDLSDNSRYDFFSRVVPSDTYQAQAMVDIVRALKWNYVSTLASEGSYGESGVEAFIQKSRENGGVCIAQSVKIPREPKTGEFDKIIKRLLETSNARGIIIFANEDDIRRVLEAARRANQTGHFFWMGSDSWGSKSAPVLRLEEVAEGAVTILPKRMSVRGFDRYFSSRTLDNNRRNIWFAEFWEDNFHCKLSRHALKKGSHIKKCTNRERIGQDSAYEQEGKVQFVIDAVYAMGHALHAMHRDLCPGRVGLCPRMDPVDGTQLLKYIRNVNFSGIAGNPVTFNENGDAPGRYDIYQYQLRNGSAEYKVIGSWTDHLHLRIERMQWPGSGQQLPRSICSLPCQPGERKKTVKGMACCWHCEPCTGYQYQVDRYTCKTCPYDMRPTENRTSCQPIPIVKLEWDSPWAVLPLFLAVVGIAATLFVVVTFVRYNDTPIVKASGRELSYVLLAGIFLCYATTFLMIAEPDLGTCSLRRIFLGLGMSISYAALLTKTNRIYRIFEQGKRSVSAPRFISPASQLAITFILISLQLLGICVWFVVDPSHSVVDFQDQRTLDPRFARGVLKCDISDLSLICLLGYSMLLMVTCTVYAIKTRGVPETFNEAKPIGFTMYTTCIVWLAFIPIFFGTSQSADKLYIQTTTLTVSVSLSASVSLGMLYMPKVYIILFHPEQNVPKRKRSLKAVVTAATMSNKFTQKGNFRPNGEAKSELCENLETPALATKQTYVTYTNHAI

| glutamate EC50 in presence of 30 uM compound (lower = stronger potentiation) | Structure (SMILES) |
| --- | --- |
| 4010 nM (inactive) | O=C(Nc1ccc(F)c(C(F)(F)F)c1)c1ccccn1 |
| 409 nM | COc1cc(NC(=O)c2ccccn2)ccc1F |
| 5820 nM (inactive) | O=C(Nc1ccc(Cl)c(C(F)(F)F)c1)c1ccccn1 |
| 307 nM | COc1cc(NC(=O)c2ccccn2)ccc1Cl |
| 1180 nM | COc1ccc(NC(=O)c2ccccn2)cc1Cl |
| 368 nM | O=C(Nc1cccc(Cl)c1)c1ccccn1 |
| 330 nM | COc1cc(NC(=O)c2ccccn2)ccc1C |

— PubChem BioAssay AID2179 (Vanderbilt High Throughput Screening Facility, 2009)
